Experiments:
Format in all cases: cell-based
[1] = test system: Chikungunya virus (CHIKV); assay: microbe, parasite or virus in culture; conditions: Chikungunya virus, Vero, 48 h, read-out: Percent viral inhibition CHKV
dengue virus (DENV) = assay: microbe, parasite or virus in culture; conditions: Dengue virus, Vero, 120 h, read-out: Percent viral inhibition DENY
Marburg virus (MARV) = assay: organism not typed; conditions: Vero, 72 h, read-out: Percent viral inhibition MARV

| SMILES | inhibition at 1 µM [1] [%] | inhibition at 1 µM (dengue virus (DENV)) [%] | inhibition at 1 µM (Marburg virus (MARV)) [%] |
| --- | --- | --- | --- |
| COCCN1CCN(c2ccc(Oc3cc(CN4CCC(CNC(C)=O)CC4)cc(-c4cc(Cl)cc(Cl)c4)n3)cn2)CC1 [Example 250, N-((1-((2-(3,5-dichlorophenyl)-6-((6-(4-(2-methoxyethyl)piperazin-1-yl)pyridin-3-yl)oxy)pyridin-4-yl)methyl)piperidin-4-yl)methyl)acetamide] | 25.9 | 55 | 0 |
| CC(=O)NCC1CCN(Cc2cc(Oc3ccc(N4CCN(CCCS(C)(=O)=O)CC4)nc3)nc(-c3cc(Cl)cc(Cl)c3)c2)CC1 [Example 251, N-((1-((2-(3,5-dichlorophenyl)-6-((6-(4-(3-(methylsulfonyl)propyl)piperazin-1-yl)pyridin-3-yl)oxy)pyridin-4-yl)methyl)piperidin-4-yl)methyl)acetamide] | 0 | 45.5 | 38.9 |
| NS(=O)(=O)CCCN1CCN(c2ccc(Oc3cc(CN4CCC(CC(=O)O)CC4)cc(-c4cc(Cl)cc(Cl)c4)n3)cn2)CC1 [Example 252, 2-(1-((2-(3,5-dichlorophenyl)-6-((6-(4-(3-sulfamoylpropyl)piperazin-1-yl)pyridin-3-yl)oxy)pyridin-4-yl)methyl)piperidin-4-yl)acetic acid] | 33.2 | 23.3 | 53.5 |
| CC(=O)NCC1CCN(Cc2cc(Oc3cnc(N4CCN(CCCS(N)(=O)=O)CC4)nc3)nc(-c3cc(Cl)cc(Cl)c3)c2)CC1 [Example 253, N-((1-((2-(3,5-dichlorophenyl)-6-((2-(4-(3-sulfamoylpropyl)piperazin-1-yl)pyrimidin-5-yl)oxy)pyridin-4-yl)methyl)piperidin-4-yl)methyl)acetamide] | 36.1 | 27.3 | 52.1 |
| CNC(=O)NCC1CCN(Cc2cc(Oc3ccc(N4CCN(CCOC)CC4)nc3)nc(-c3cc(Cl)cc(Cl)c3)c2)CC1 [Example 254, 1-((1-((2-(3,5-dichlorophenyl)-6-((6-(4-(2-methoxyethyl)piperazin-1-yl)pyridin-3-yl)oxy)pyridin-4-yl)methyl)piperidin-4-yl)methyl)-3-methylurea] | 5.74 | 57 | 40.4 |
| CNC(=O)NCC1CCN(Cc2cc(Oc3ccc(N4CCN(CCCS(C)(=O)=O)CC4)nc3)nc(-c3cc(Cl)cc(Cl)c3)c2)CC1 [Example 255, 1-((1-((2-(3,5-dichlorophenyl)-6-((6-(4-(3-(methylsulfonyl)propyl)piperazin-1-yl)pyridin-3-yl)oxy)pyridin-4-yl)methyl)piperidin-4-yl)methyl)-3-methylurea] | 16.1 | 10.3 | 40.1 |
| CNC(=O)NCC1CCN(Cc2cc(Oc3cnc(N4CCN(CCC(=O)O)CC4)nc3)nc(-c3cc(Cl)cc(Cl)c3)c2)CC1 [Example 256, 3-(4-(5-((6-(3,5-dichlorophenyl)-4-((4-((3-methylureido)methyl)piperidin-1-yl)methyl)pyridin-2-yl)oxy)pyrimidin-2-yl)piperazin-1-yl)propanoic acid] | 30.4 | 47.2 | 49.3 |
| CNC(=O)NCC1CCN(Cc2cc(Oc3cnc(N4CCN(CCCS(C)(=O)=O)CC4)nc3)nc(-c3cc(Cl)cc(Cl)c3)c2)CC1 [Example 257, 1-((1-((2-(3,5-dichlorophenyl)-6-((2-(4-(3-(methylsulfonyl)propyl)piperazin-1-yl)pyrimidin-5-yl)oxy)pyridin-4-yl)methyl)piperidin-4-yl)methyl)-3-methylurea] | 10.3 | 46.5 | 26.5 |
| CC(=O)NCC1CCN(Cc2cc(Oc3cnc(N4CCN(CCCS(C)(=O)=O)CC4)nc3)nc(-c3cc(Cl)cc(Cl)c3)c2)CC1 [Example 259, N-((1-((2-(3,5-dichlorophenyl)-6-((2-(4-(3-(methylsulfonyl)propyl)piperazin-1-yl)pyrimidin-5-yl)oxy)pyridin-4-yl)methyl)piperidin-4-yl)methyl)acetamide] | 15 | 47 | 67.2 |
| CNC(=O)NCC1CCN(Cc2cc(Oc3cnc(N4CCN(CCC(N)=O)CC4)nc3)nc(-c3cc(Cl)cc(Cl)c3)c2)CC1 [Example 261, 3-(4-(5-((6-(3,5-dichlorophenyl)-4-((4-((3-methylureido)methyl)piperidin-1-yl)methyl)pyridin-2-yl)oxy)pyrimidin-2-yl)piperazin-1-yl) propanamide] | 0.69 | 53.6 | 56.8 |
| CNC(=O)NCC1CCN(Cc2cc(Oc3cnc(N4CCN(CCOC)CC4)nc3)nc(-c3cc(Cl)cc(Cl)c3)c2)CC1 [Example 262, 1-((1-((2-(3,5-dichlorophenyl)-6-((2-(4-(2-methoxyethyl)piperazin-1-yl)pyrimidin-5-yl)oxy)pyridin-4-yl)methyl)piperidin-4-yl)methyl)-3-methylurea] | 19 | 10.3 | 39.3 |
| CC(=O)NCC1CCN(Cc2cc(Oc3cnc(N4CCN(CCC(=O)O)CC4)nc3)nc(-c3cc(Cl)cc(Cl)c3)c2)CC1 [Example 263, 3-(4-(5-((4-((4-(acetamidomethyl)piperidin-1-yl)methyl)-6-(3,5-dichlorophenyl)pyridin-2-yl)oxy)pyrimidin-2-yl)piperazin-1-yl)propanoic acid] | 28.9 | 39.7 | 48.5 |
| CC(=O)NCC1CCN(Cc2cc(Oc3cnc(N4CCN(CCC(=O)O)CC4)c(F)c3)nc(-c3cc(Cl)cc(Cl)c3)c2)CC1 [Example 266] | 22.6 | 48.7 | 56.3 |
| CCOC(=O)NCC1CCN(Cc2cc(Oc3cnc(N4CCN(CCC(=O)O)CC4)nc3)nc(-c3cc(Cl)cc(Cl)c3)c2)CC1 [Example 267, 3-(4-(5-((6-(3,5-dichlorophenyl)-4-((4-(((ethoxycarbonyl)amino)methyl)piperidin-1-yl)methyl)pyridin-2-yl)oxy)pyrimidin-2-yl)piperazin-1-yl) propanoic acid] | 34.6 | 37 | 65 |
| CC(CC1CCN(Cc2cc(Oc3cnc(N4CCNCC4)nc3)nc(-c3cc(Cl)cc(Cl)c3)c2)CC1)C(=O)O (stereo not drawn) [Example 269, 3-(1-((2-(3,5-dichlorophenyl)-6-((2-(piperazin-1-yl)pyrimidin-5-yl)oxy)pyridin-4-yl)methyl)piperidin-4-yl)-2-methylpropanoic acid] | 24.5 | 39.5 | 35 |
| CNC(=O)NCC1CCN(Cc2cc(Oc3cnc(N4CCN(CCC(=O)O)CC4)c(F)c3)nc(-c3cc(Cl)cc(Cl)c3)c2)CC1 [Example 270, 3-(4-(5-((6-(3,5-dichlorophenyl)-4-((4-((3-methylureido)methyl)piperidin-1-yl)methyl)pyridin-2-yl)oxy)-3-fluoropyridin-2-yl)piperazin-1-yl)propanoic acid] | 30.7 | 61.6 | 53.6 |
| CS(=O)(=O)CCCN1CCN(c2ccc(Oc3cc(CN4CCC(CCC(=O)O)CC4)cc(-c4cc(Cl)cc(Cl)c4)n3)cn2)CC1 [Example 271, 3-(1-((2-(3,5-dichlorophenyl)-6-((6-(4-(3-(methylsulfonyl)propyl)piperazin-1-yl)pyridin-3-yl)oxy)pyridin-4-yl)methyl)piperidin-4-yl)propanoic acid] | 22.5 | 0 | 59.7 |
| CS(=O)(=O)CCCN1CCN(c2ncc(Oc3cc(CN4CCC(CCC(=O)O)CC4)cc(-c4cc(Cl)cc(Cl)c4)n3)cn2)CC1 [Example 272, 3-(1-((2-(3,5-dichlorophenyl)-6-((2-(4-(3-(methylsulfonyl)propyl)piperazin-1-yl)pyrimidin-5-yl)oxy)pyridin-4-yl)methyl)piperidin-4-yl)propanoic acid] | 30.3 | 42.4 | 45.5 |
| CC(=O)NCC1CCN(Cc2cc(Oc3cnc(N4CCN(CCC(N)=O)CC4)nc3)nc(-c3cc(F)c(F)c(Cl)c3)c2)CC1 [Example 273] | 23.4 | 25.4 | 58.5 |
| CNC(=O)NCC1CCN(Cc2cc(Oc3cnc(N4CCN(CCCS(C)(=O)=O)CC4)nc3)nc(-c3cc(F)cc(Cl)c3)c2)CC1 [Example 274, 1-((1-((2-(3-chloro-5-fluorophenyl)-6-((2-(4-(3-(methylsulfonyl)propyl)piperazin-1-yl)pyrimidin-5-yl)oxy)pyridin-4-yl)methyl)piperidin-4-yl)methyl)-3-methylurea] | 44.4 | 56.1 | 49 |
| COC(=O)NCC1CCN(Cc2cc(Oc3cnc(N4CCNCC4)nc3)nc(-c3cc(F)cc(Cl)c3)c2)CC1 [Example 275, methyl((1-((2-(3-chloro-5-fluorophenyl)-6-((2-(piperazin-1-yl)pyrimidin-5-yl)oxy)pyridin-4-yl)methyl)piperidin-4-yl)methyl)carbamate] | 0 | 0 | 0 |
| CS(=O)(=O)CCC1CCN(Cc2cc(Oc3ccc(N4CCN(CCC(=O)O)CC4)nc3)nc(-c3cc(Cl)cc(Cl)c3)c2)CC1 [Example 276, 3-(4-(5-((6-(3,5-dichlorophenyl)-4-((4-(2-(methylsulfonyl)ethyl)piperidin-1-yl)methyl)pyridin-2-yl)oxy)pyridin-2-yl)piperazin-1-yl)propanoic acid] | 31.8 | 27.3 | 51.8 |
| NS(=O)(=O)CCC1CCN(Cc2cc(Oc3ccc(N4CCN(CCC(=O)O)CC4)nc3)nc(-c3cc(Cl)cc(Cl)c3)c2)CC1 [Example 277, 3-(4-(5-((6-(3,5-dichlorophenyl)-4-((4-(2-sulfamoylethyl)piperidin-1-yl)methyl)pyridin-2-yl)oxy)pyridin-2-yl)piperazin-1-yl)propanoic acid] | 11.7 | 21.7 | 61.8 |

— patent US20230011571A1, “SMALL MOLECULE FURIN INHIBITORS FOR TREATING INFECTIOUS DISEASES” (BP Asset V, Inc., priority 2019, published 2023)
